PubChem BioAssay AID1963442 (Molecular Pharmacology Branch, DTP, NCI, 2024)

Test system: MPNST complex spheroid with HUVEC/MSC, growth, % test/control
Test: Anticancer human tumor MPNST cell line growth inhibition [Asc];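 also: compounds left on spheroids for seven days before reading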
Settings: for IC50: curve of first compound; for viability, T/C: stronger effect = lower value; active = viability on the fitted dose curve at most 10% of control; inactive = the rest
How it was run: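 Spheroid model: tumor line + HUVEC + hMSC. Single agents and combinations; top conc. at/near clinical Cmax (10 microM if undetermined), half-log dilutions. DMSO stocks at 800-fold test concentration.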

[1] = second compound 0.00316 µM, first compound 0.00316 µM
[2] = second compound 0.00316 µM, first compound 0.01 µM
[3] = second compound 0.00316 µM, first compound 0.0316 µM
[4] = second compound 0.00316 µM, first compound 0.1 µM
[5] = second compound 0.01 µM, first compound 0.00316 µM
[6] = second compound 0.01 µM, first compound 0.01 µM
[7] = second compound 0.01 µM, first compound 0.0316 µM
[8] = second compound 0.01 µM, first compound 0.1 µM
[9] = second compound 0.0316 µM, first compound 0.00316 µM
[10] = second compound 0.0316 µM, first compound 0.01 µM
[11] = second compound 0.0316 µM, first compound 0.0316 µM
[12] = second compound 0.0316 µM, first compound 0.1 µM
[13] = second compound 0.1 µM, first compound 0.00316 µM
[14] = second compound 0.1 µM, first compound 0.01 µM
[15] = second compound 0.1 µM, first compound 0.0316 µM
[16] = second compound 0.1 µM, first compound 0.1 µM
[17] = second compound 0.316 µM, first compound 0.00316 µM
[18] = second compound 0.316 µM, first compound 0.01 µM
[19] = second compound 0.316 µM, first compound 0.0316 µM
[20] = second compound 0.316 µM, first compound 0.1 µM
[21] = second compound 1 µM, first compound 0.00316 µM
[22] = second compound 1 µM, first compound 0.01 µM
[23] = second compound 1 µM, first compound 0.0316 µM
[24] = second compound 1 µM, first compound 0.1 µM

COc1c(OCCCN2CCOCC2)ccc2c3n(c(=NC(=O)c4cnc(N)nc4)nc12)CCN3 + CNC(C)C(=O)NC1CN(S(=O)(=O)c2cccc(S(=O)(=O)N3CCC4CCC(C(=O)NC(c5ccccc5)c5ccccc5)N4C(=O)C(NC(=O)C(C)NC)C3)c2)CCC2CCC(C(=O)NC(c3ccccc3)c3ccccc3)N2C1=O
inactive: viability, T/C [1] 89.4% | viability, T/C [2] 66.3% | viability, T/C [3] 28.6% | viability, T/C [4] 24.9% | viability, T/C (second compound 0.00316 µM, first compound 0.316 µM) 9.54% | viability, T/C [5] 81.5% | viability, T/C [6] 71.1% | viability, T/C [7] 49.9% | viability, T/C [8] 18.6% | viability, T/C [9] 104% | viability, T/C [10] 61.6% | viability, T/C [11] 57.1% | viability, T/C [12] 19.4% | viability, T/C (second compound 0.0316 µM, first compound 0.316 µM) 9.82% | viability, T/C [13] 90.1% | viability, T/C [14] 59.8% | viability, T/C [15] 32.2% | viability, T/C [16] 25.8% | viability, T/C (second compound 0.1 µM, first compound 0.316 µM) 13.8% | viability, T/C [17] 78.7% | viability, T/C [18] 52.2% | viability, T/C [19] 39.3% | viability, T/C [20] 19.8% | viability, T/C (second compound 0.316 µM, first compound 0.316 µM) 11.1% | viability, T/C [21] 65.7% | viability, T/C [22] 51% | viability, T/C [23] 32% | viability, T/C [24] 21.2% | viability, T/C (second compound 1 µM, first compound 0.316 µM) 10.2%
15.6 nM: IC50 (second compound 0.1 µM)
13.2 nM: IC50 (second compound 0.316 µM)
active: viability, T/C (second compound 0.00316 µM, first compound 1 µM) 5.55% | viability, T/C (second compound 0.01 µM, first compound 0.316 µM) 10.2% | viability, T/C (second compound 0.01 µM, first compound 1 µM) 5.07% | viability, T/C (second compound 0.0316 µM, first compound 1 µM) 4.9% | viability, T/C (second compound 0.1 µM, first compound 1 µM) 5.12% | viability, T/C (second compound 0.316 µM, first compound 1 µM) 5.92% | viability, T/C (second compound 1 µM, first compound 1 µM) 5.66%
24.6 nM: IC50 (second compound 0.0316 µM)
17.1 nM: IC50 (second compound 0.00316 µM)
29.4 nM: IC50 (second compound 0.01 µM)
10 nM: IC50 (second compound 1 µM)

NC(=O)C(=Cn1cnc(-c2cc(C(F)(F)F)cc(C(F)(F)F)c2)n1)c1cncnc1 + CNC(C)C(=O)NC1CN(S(=O)(=O)c2cccc(S(=O)(=O)N3CCC4CCC(C(=O)NC(c5ccccc5)c5ccccc5)N4C(=O)C(NC(=O)C(C)NC)C3)c2)CCC2CCC(C(=O)NC(c3ccccc3)c3ccccc3)N2C1=O
52.7 nM: IC50 (second compound 0.1 µM)
18.1 nM: IC50 (second compound 0.316 µM)
163 nM: IC50 (second compound 0.0316 µM)
69.8 nM: IC50 (second compound 1 µM)
54.6 nM: IC50 (second compound 0.01 µM)
11.6 nM: IC50 (second compound 0.00316 µM)
inactive: viability, T/C (second compound 0.00316 µM, first compound 0.000949 µM) 68.7% | viability, T/C (second compound 0.00316 µM, first compound 0.003 µM) 65% | viability, T/C (second compound 0.00316 µM, first compound 0.00949 µM) 49.3% | viability, T/C (second compound 0.00316 µM, first compound 0.03 µM) 43.9% | viability, T/C (second compound 0.00316 µM, first compound 0.0949 µM) 28% | viability, T/C (second compound 0.00316 µM, first compound 0.3 µM) 30.8% | viability, T/C (second compound 0.01 µM, first compound 0.000949 µM) 78.4% | viability, T/C (second compound 0.01 µM, first compound 0.003 µM) 73% | viability, T/C (second compound 0.01 µM, first compound 0.00949 µM) 84.1% | viability, T/C (second compound 0.01 µM, first compound 0.03 µM) 66.3% | viability, T/C (second compound 0.01 µM, first compound 0.0949 µM) 34.6% | viability, T/C (second compound 0.01 µM, first compound 0.3 µM) 35.3% | viability, T/C (second compound 0.0316 µM, first compound 0.000949 µM) 58.5% | viability, T/C (second compound 0.0316 µM, first compound 0.003 µM) 72% | viability, T/C (second compound 0.0316 µM, first compound 0.00949 µM) 70.5% | viability, T/C (second compound 0.0316 µM, first compound 0.03 µM) 82.1% | viability, T/C (second compound 0.0316 µM, first compound 0.0949 µM) 59.2% | viability, T/C (second compound 0.0316 µM, first compound 0.3 µM) 34.9% | viability, T/C (second compound 0.1 µM, first compound 0.000949 µM) 101% | viability, T/C (second compound 0.1 µM, first compound 0.003 µM) 80.7% | viability, T/C (second compound 0.1 µM, first compound 0.00949 µM) 103% | viability, T/C (second compound 0.1 µM, first compound 0.03 µM) 62.3% | viability, T/C (second compound 0.1 µM, first compound 0.0949 µM) 37.5% | viability, T/C (second compound 0.1 µM, first compound 0.3 µM) 36.9% | viability, T/C (second compound 0.316 µM, first compound 0.000949 µM) 72.6% | viability, T/C (second compound 0.316 µM, first compound 0.003 µM) 49.9% | viability, T/C (second compound 0.316 µM, first compound 0.00949 µM) 60.5% | viability, T/C (second compound 0.316 µM, first compound 0.03 µM) 46% | viability, T/C (second compound 0.316 µM, first compound 0.0949 µM) 43.7% | viability, T/C (second compound 0.316 µM, first compound 0.3 µM) 34.4% | viability, T/C (second compound 1 µM, first compound 0.000949 µM) 63.2% | viability, T/C (second compound 1 µM, first compound 0.003 µM) 59% | viability, T/C (second compound 1 µM, first compound 0.00949 µM) 66.2% | viability, T/C (second compound 1 µM, first compound 0.03 µM) 55.6% | viability, T/C (second compound 1 µM, first compound 0.0949 µM) 47.8% | viability, T/C (second compound 1 µM, first compound 0.3 µM) 36%

NC1CCC(NC2CC2c2ccccc2)CC1 (stereo unspecified) + CNC(C)C(=O)NC1CN(S(=O)(=O)c2cccc(S(=O)(=O)N3CCC4CCC(C(=O)NC(c5ccccc5)c5ccccc5)N4C(=O)C(NC(=O)C(C)NC)C3)c2)CCC2CCC(C(=O)NC(c3ccccc3)c3ccccc3)N2C1=O
inactive: viability, T/C (second compound 0.00316 µM, first compound 0.000316 µM) 65.4% | viability, T/C (second compound 0.00316 µM, first compound 0.001 µM) 91.4% | viability, T/C [1] 51.1% | viability, T/C [2] 99.5% | viability, T/C [3] 55% | viability, T/C [4] 52.7% | viability, T/C (second compound 0.01 µM, first compound 0.000316 µM) 72.2% | viability, T/C (second compound 0.01 µM, first compound 0.001 µM) 74.9% | viability, T/C [5] 79.5% | viability, T/C [6] 84.7% | viability, T/C [7] 62.6% | viability, T/C [8] 47.7% | viability, T/C (second compound 0.0316 µM, first compound 0.000316 µM) 88.5% | viability, T/C (second compound 0.0316 µM, first compound 0.001 µM) 63.8% | viability, T/C [9] 70.4% | viability, T/C [10] 81.8% | viability, T/C [11] 61.8% | viability, T/C [12] 61.6% | viability, T/C (second compound 0.1 µM, first compound 0.000316 µM) 94.8% | viability, T/C (second compound 0.1 µM, first compound 0.001 µM) 79.1% | viability, T/C [13] 87.3% | viability, T/C [14] 61.1% | viability, T/C [15] 69.5% | viability, T/C [16] 54.3% | viability, T/C (second compound 0.316 µM, first compound 0.000316 µM) 83.3% | viability, T/C (second compound 0.316 µM, first compound 0.001 µM) 77.2% | viability, T/C [17] 69.3% | viability, T/C [18] 99.6% | viability, T/C [19] 79.6% | viability, T/C [20] 48.7% | viability, T/C (second compound 1 µM, first compound 0.000316 µM) 92.9% | viability, T/C (second compound 1 µM, first compound 0.001 µM) 59.2% | viability, T/C [21] 69.1% | viability, T/C [22] 63.3% | viability, T/C [23] 85.2% | viability, T/C [24] 55.7%
95.3 nM: IC50 (second compound 0.316 µM)
83.9 nM: IC50 (second compound 0.01 µM)
> 100 nM: IC50 (second compound 0.00316 µM) | IC50 (second compound 0.0316 µM) | IC50 (second compound 0.1 µM) | IC50 (second compound 1 µM)
